Reference: PubChem BioAssay AID1508591

Settings: rat; liver microsomes; pH 7.4; 15.0 min; 1.0 µM

Compound | half-life [min]
Cc1cc(NC(=O)c2ccc(NC(=O)Cc3ccc(Cl)c(Cl)c3)cc2)no1 | 22
COc1ccc(-n2nc(C3CCCN(C(=O)c4ccccc4F)C3)[nH]c2=O)cc1 (centres undefined) | > 30
Cc1ccc(S(=O)(=O)Nc2cnccc2C(=O)Nc2nc(-c3ccccc3F)cs2)cc1 | 9.9
Cc1c(C)n(Cc2ccc(-c3ccccc3C(=O)O)cc2)c2ccc(C(=O)N[C@@H](C)c3ccc([N+](=O)[O-])cc3)cc12 | > 30
CC(=O)c1ccc(N2CCN(S(=O)(=O)c3cc4c(cc3Cl)NC(=O)C4)CC2)cc1 | 28
Fc1cc(Nc2nc(-c3ccncc3)nc3ccccc23)ccc1N1CCCC1 | 5.8
Clc1ccc(Nc2nc(-c3ccncc3)nc3ccccc23)cc1Cl | 15
O=C([C@@H]1CCCN(c2ccc3[nH]c(C4(n5cc(Cl)cn5)CC4)nc3n2)C1)N1CCCC1 | > 30
NC(=O)C1CCN(c2nc(-c3ccc(F)cc3)cs2)CC1 | 7.09
COc1cccc(OC)c1C(=O)Nc1ccccc1C(=O)Nc1cccc(C(F)(F)F)c1 | 3.11
O=C(Nc1ncc(Cc2ccc(C(F)(F)F)cc2)s1)c1ccc(-c2ccc([N+](=O)[O-])cc2)o1 | > 30
CN1C(=O)c2ccccc2[S@](=O)c2ccc(C(=O)NCCN3CCCC3)cc21 | > 30
Cn1cc(Br)c(C2N=C(Nc3nc4ccccc4o3)NC3=C2C(=O)CCC3)n1 (centres undefined) | 8.5
CC[C@@]1(O)C(=O)OCc2c1cc1n(c2=O)Cc2cc3ccccc3nc2-1 | > 30
NCC(=O)Nc1ccc(Cl)cc1C(=O)c1ccc[nH]1 | > 30
FC(F)(F)c1ccc(CNc2nc(-c3ccccc3C(F)(F)F)nc3ccccc23)cc1 | > 30
Cc1noc(C)c1-c1ccc2ncnc(NCc3cccc(Cl)c3)c2c1 | 5.19
O=C1CCc2ccc(OCCCCN3CCN(c4cccc(Cl)c4Cl)CC3)cc2N1 | 2.56
CC(C)C(=O)Nc1cccc(NC(=O)c2cc3ccccc3o2)c1 | 28
NC(=O)C1CCN(c2ncc(-c3ccc(Cl)cc3)s2)CC1 | 5.97
O=C(Nc1ccc(C(=O)N2CCCC2)cc1)c1ccccc1F | > 30
COCCNS(=O)(=O)c1cc(-c2nn3c(C)nnc3c3ccccc23)ccc1C | 4.77
CN1CCN(Cc2ccc(-c3ccc(C(C)(C)C#N)cc3)nc2)CC1 | 24.6
O=C(Nc1nc(-c2ccccc2)cs1)c1ccncc1NS(=O)(=O)c1ccc2ccccc2c1 | 8.4
O=C(NCc1ccc(N2CCCC2)nc1)c1cc(Cl)ccc1O | 1.9
COC(=O)c1ccnc(-c2cc(C(=O)NCCc3ccccc3)ccn2)c1 | 1.98

Compound | half-life [min]
O=S(=O)(Nc1nccs1)c1ccc(NCc2ccccc2O)cc1 | 24
COc1cc(C2CC(=O)Nc3cc4c(cc32)OCCO4)cc(Br)c1OC (centres undefined) | 2.55
Cc1nnc(-c2ccccc2C(C)C)nc1NCc1ccc(-c2cccnc2)cc1 | 5.8
COCCNc1ncc(-c2cccc(O)c2)c2c1OCC2 | 8.62
COC(=O)CNC(=O)c1nc(-c2ccc(F)cc2)c2ccccn12 | 0.91
C[C@]12CC[C@@H]3[C@H](CCC4=CC(=O)CC[C@]43C)[C@]1(O)CC[C@@]2(O)C(=O)CO | 20.9
Cc1ccc(-c2ccc(CNc3nc(-c4ccccc4C(C)C)ncc3F)cc2)cn1 | 4.5
O=C(Nc1ccc(OC(F)(F)Cl)cc1)c1cnc(N2CC[C@@H](O)C2)c(-c2ccn[nH]2)c1 | > 30
COc1ccc(CN2CCN(C(=O)c3cc4c(s3)CCC4)CC2)cc1 | 1.9
NC(=O)C1CCN(c2ncc(Br)cn2)CC1 | > 30
Cc1ccccc1C(C(=O)NC1CCCCC1)N(C(=O)Cn1ccnc1C)c1cccc(F)c1 (centres undefined) | 5.62
Cc1cc2c(-c3cccc(O)c3)nc(-c3c(C)noc3C)cc2[nH]1 | 24.2
Nc1nc2c(s1)C(c1cccc(Cl)c1Cl)CC(=O)N2 (centres undefined) | 26
Cc1nc(-c2ccccc2)cc([C@H]2CN3CC[C@H]2C[C@@H]3CNC2CCOCC2)n1 | > 30
C=C1C(=O)O[C@H]2[C@@H]1CCC(C)=CCC[C@@]1(C)O[C@@H]21 | 16.7
COc1ccc(NC(=O)C23CC4CC(CC(C4)C2)C3)cc1[S+](=O)([O-])Nc1ccc(Br)cc1 | 5
COc1ccc2oc(NC3=NC(c4[nH]ncc4Cl)C4=C(CCCC4=O)N3)nc2c1 (centres undefined) | 14.2
CC(=O)Nc1ccc(OCc2cn(CC(=O)c3ccc(O)cc3)nn2)cc1 | > 30
Cc1ccc(C(=O)Nc2cccc(C(F)(F)F)c2)cc1Nc1nc(-c2cccnc2)nc2c1cnn2C | > 30
C[C@@H](CCC[C@@H]1SC[C@H]2NC(=O)N[C@H]12)C(=O)O | > 30
CS(=O)(=O)c1ccc(-c2csc(N3CCC(C(N)=O)CC3)n2)cc1 | > 30
COc1ccc(C(=O)NC2CCN(c3cnn(CC4CC4)c(=O)c3)CC2)cc1 | > 30
O=C(Nc1ccc(Cl)cc1)C(NS(=O)(=O)c1cccs1)c1ccccc1 (centres undefined) | 5.38
Cc1ccc(S(=O)(=O)Nc2ccc(Br)cc2C(=O)Nc2nc(-c3ccccc3)cs2)cc1 | 8.9
Nc1ncc(S(=O)(=O)N2CCOCC2)s1 | > 30
Clc1ccc(-c2nc(-c3ccc(Br)o3)no2)c(Cl)c1 | 13

Compound | half-life [min]
Cc1ccccc1CN1C2=NCCN2C(=O)C2=C1CCN(Cc1ccccc1)C2 | 6.82
O=C(Nc1ccc(Cl)c(S(=O)(=O)N2CCOCC2)c1)c1ccc(S(=O)(=O)N2CCOCC2)cc1 | 6.4
O=C1Nc2cccc(Cl)c2/C1=C\c1cc(Cl)c(O)c(Cl)c1 | > 30
Cn1nnnc1Sc1ncnc2sccc12 | > 30
NC(=O)COc1ccc(C2CC(=O)Nc3n[nH]c(Nc4ccccc4)c32)cc1 (centres undefined) | > 30
O=C1CCCC2=C1C(c1[nH]ncc1Cl)N=C(Nc1nc3ccccc3o1)N2 (centres undefined) | 13.5
O=C(Nc1nc(-c2ccccc2)cs1)c1ccncc1NS(=O)(=O)c1ccc(F)cc1F | 6.5
O=C1CCCCc2cc(O)c(O)cc21 | > 30
CC(C)(C)c1ccc(C(=O)Nc2ccc3c(c2)CCCN3C(=O)c2cccs2)cc1 | 2.33
Cc1cc(-c2nnc3n2CCCCC3)c(C)n1-c1ccc([N+](=O)[O-])cc1 | 2.5
Cc1ccc(S(=O)(=O)Nc2cc(C(=O)Nc3nc(-c4ccccc4)cs3)ccn2)cc1 | > 30
Cc1ccc(N2CCN(c3cnn(-c4nc5ccccc5s4)c(=O)c3Cl)CC2C)cc1 (centres undefined) | 10.5
FC(F)(F)c1cccc(Sc2nc(-c3ccccc3)nnc2C(F)(F)F)c1 | 11
O=C(c1nc(-c2cccnc2)c2ccccn12)N1CCOCC1 | > 30
COc1ccc(Nc2cc(C)nc(-n3nc(C)cc3C)n2)cc1Cl | 17.7
CN(C)S(=O)(=O)c1cccc(NC(=O)c2ccc[nH]2)c1 | 10.5
COc1ccc(-n2nc(C3CCN([S+](=O)([O-])c4cccc(C(F)(F)F)c4)CC3)[nH]c2=O)cc1 | 15
CCc1ccc(NC(=O)[C@H](Cc2c[nH]c3ccccc23)NC(=O)[C@@H]2Cc3ccccc3CN2)cc1 | 2.32
Cc1cccc2c(C(=O)O)cc(-c3cccs3)nc12 | 8.96
COc1cc(CNCCO)cc(Cl)c1OCc1ccc(Cl)cc1Cl | 25.5
CCN1CCN(CC(=O)Nc2ccc(-c3cccc4c(=O)cc(N5CCOCC5)oc34)c3sc4ccccc4c23)CC1 | > 30
O=C(Nc1ccc(S(=O)(=O)Nc2nccs2)cc1)c1ccnc(-c2ccccc2)c1 | > 30
CC(C)c1cc(C(=O)N2CC[C@@H](NC(=O)C3CC3)C2)n[nH]1 | > 30
O=C(NCCCNc1nc(Nc2cccc(CN3CCOCC3)c2)ncc1C1CC1)C1CCC1 | 6.85
C[S+](=O)([O-])c1ccc(-c2nc(C(=O)N3CCOCC3)n3ccncc23)cc1 | > 30
CC(C)c1ccc(OCc2nc3c(n2Cc2ccccc2)C(=O)N(CC2CCOCC2)CCN3)cc1 | 1.68

Compound | half-life [min]
O=c1cc(/C=C/c2c(F)cccc2Cl)[nH]c2ccccc12 | 17.8
Cn1c(=O)c2[nH]c(=O)[nH]c2n(C)c1=O | > 30
Cc1ccc(-c2cc(C(=O)Nc3ccc(S(=O)(=O)Nc4ccc(C#N)cc4)cc3)c3ccccc3n2)cc1C | 15
O=C(Nc1ccc([N+](=O)[O-])cc1Cl)c1cc(Cl)ccc1O | > 30
CCc1ccc(C2C(C(=O)Nc3ccccc3OC)=C(C)Nc3c(C(=O)Nc4ccc(C)cc4)cnn32)cc1 (centres undefined) | 2.75
Cc1ccc(S(=O)(=O)Nc2cnccc2C(=O)Nc2nc(-c3cccnc3)cs2)cc1 | 7.7
CN1CCN(c2cc(-c3nc(Nc4ccc(F)c(F)c4)c4ccccc4n3)ccn2)CC1 | 5.3
Cc1ccc(S(=O)(=O)Nc2ccc(C)cc2C(=O)Nc2nc(-c3ccccc3)cs2)cc1 | 3.7
Fc1cc(Nc2nc(-c3ccncc3)nc3ccccc23)ccc1C(F)(F)F | 17
CCCCOC(=O)c1ccnc2cc(C(OCCN3CCCCC3)c3ccccc3Cl)sc12 (centres undefined) | 3.32
CCOc1ccc(CN2C(=O)c3ccccc3Sc3ccc(C(=O)NC4CCC(C)CC4)cc32)cc1 (centres undefined) | 3.52
CN(C)C(=O)c1cc2cnc(Nc3ccc(N4CCNCC4)cn3)nc2n1C1CCCC1 | > 30
Cc1ccc(C(=O)Nc2nc3nc(-c4ccccc4)cc(=O)n3[nH]2)cc1 | > 30
CCOc1ccc(C2c3c(oc4ccc(C)cc4c3=O)C(=O)N2CCCN(C)C)cc1 (centres undefined) | 13.6
Cc1cnc(-c2ccccc2C(C)C)nc1NCC1CCN(C2COC2)CC1 | 7.7
N#CC1(c2ccc(NC(=O)c3cccnc3NCc3ccncc3)cc2)CCCC1 | 9.14
Cc1ccc(CSCc2ccc(C(=O)NC3CC3)o2)cc1 | 1.7
CCN(CC)C(=O)c1coc(COc2ccc3c(c2)C(c2cccc(F)c2)N(C(=O)C(C)C)CC3)n1 (centres undefined) | 1.28
Cc1ccc(-n2nc3c(=O)n(CCCC(=O)NC(C)c4ccccc4)nc(C)c3c2C)cc1 (centres undefined) | 2.27
Fc1ccc(Nc2nc(-c3ccccc3)cc(-c3ccncc3)n2)cc1F | > 30
Cc1cn2c(N)c(Cl)cc(C(=O)NCC3CCN(CC(C)C)CC3)c2n1 | > 30
COc1ccc(-c2ccc3ncc(Nc4ccc(C(N)=O)cc4)n3n2)cc1OC | > 30
CC(=O)c1sc(NC(=O)c2ccco2)nc1-c1ccccc1 | 1.8
COc1cc2c(cc1OCCCN1CCCC1)N=C(N)C21CCC1 | > 30
Oc1ccc(CNc2cccc(F)c2F)c2cccnc12 | 6.35
COC(=O)[C@H](NC(=O)c1cc(-c2ccccc2)nc2ccccc12)c1ccccc1 | 11
